Publication PMC8249445, “Complex effects of macrolide venturicidins on bacterial F-ATPases likely contribute to their action as antibiotic adjuvants” (Scientific Reports, 2021)

Key:
[1] = target: T1, E. coli membranes with FOF1 lacking the ε subunit's CTD (ε88-stop) (Escherichia coli, UniProt P68699); assay: ATP hydrolysis by ε88-stop E. coli membranes, enzyme-coupled spectrophotometric assay; type: biochemical; conditions: for Ki: VentA at half-max. inhibition (Ki), early inhibition; for ATPase at saturating ventA (y0) / VentA-sensitive ATPase (y1): best fit of early rates
T1 construct: To express haploid levels of EcFOF1 containing WT-ε or ε88-stop; expressed in transfected cells; host or cells: E. coli strain XH1 (chromosomal atpC deletion) carrying the ε88-stop version of pMBε1; inverted membrane vesicles
Text: We next investigated whether the ε-inhibited state of EcFOF1 also impacts interactions of ventA with the enzyme. The N-terminal domain (NTD) of ε is required for FOF1 assembly and functional coupling of F1 to FO in eukaryotic and bacterial species; the C-terminal domain (CTD) of ε can auto-inhibit FOF1 and isolated F1 from some bacteria and from chloroplasts, but the mitochondrial homolog (δ) is not inhibitory[39],[40]. Thus we measured the effects of ventA on ATPase activity of E. coli membranes expressing ε88-stop, which lacks the autoinhibitory εCTD (Fig. 3). From Table 1 (100% ATPase values), it is clear that selenite activates membrane ATPase more (fourfold) for ε88-stop than for WT (2.8-fold). This is because, without the inhibitory εCTD, more enzyme complexes shift to the MgADP-inhibited state, which can be activated by selenite. […] In contrast, early inhibition of ATPase by ventA has similar Ki values for WT and ε88-stop membranes in the absence (0.7 vs 0.5 μM) or in the presence of selenite (0.23 vs 0.09 μM).
Plasmid pXH302S, which encodes the WT atpC gene and expresses near haploid levels of the ε subunit, was subjected to fusion PCR mutagenesis to construct plasmid pMBε1, with an N-terminal affinity tag ([…]) added prior to the initial Met residue. To express the ε88-stop subunit, an AfeI-ScaI restriction fragment of WT pMBε1 was replaced by the analogous fragment from pH6ε88-stop[46]. To express haploid levels of EcFOF1 containing WT-ε or ε88-stop, the appropriate version of pMBε1 was transformed into E. coli strain XH1, which has a chromosomal deletion of the atpC gene for ε[54]. For these transformed strains, cultures were grown and inverted membrane vesicles (IMV) were prepared according to [55]. WT ε, with the same N-terminal His6-tag, was over-expressed from pH6ε and purified as described.
(§1) ATP hydrolysis by membrane vesicles was assayed spectrophotometrically[57] at 30 °C using an open-chamber, diode array spectrophotometer (Hewlett Packard 8453 UV–Vis) as described in[29]. The assay medium (1 ml per assay) contained 20 mM Mops/Tris, pH 8.0, 0.2 mM EDTA, 10 mM CH3COOK, 1 mM ATP, 3.2 mM Mg(CH3COO)2, 1 mM phosphoenolpyruvate, at least 0.3 mM NADH, 0.1 mg/ml pyruvate kinase, 0.1 mg/ml lactate dehydrogenase, 5 mM KCN, and 5 μM carbonyl cyanide 4-(trifluoromethoxy)-phenylhydrazone. As noted before, the rate of ATP hydrolysis by membranes increases to a small degree during assays. This is due, at least in part, to dissociation of a small fraction of EcF1 and/or ε from the membranes, since the increase is inhibited by added ε (e.g., Fig. 5). To avoid interference of this increase with the changes of ATPase activity induced by venturicidins, unless indicated otherwise, measurement of ATPase activities were started 60 min after addition of membranes to the complete assay medium. This minimizes further increases in ATPase rate during control assays to < 15%. To keep absorbance between 1.5 and 2 units after the 60-min preincubation, up to 0.2 mM additional NADH was added to the assay medium. In figures displaying activity traces, some traces are shifted vertically for visual clarity.

[2] = target: T2, PaFOF1 in membranes from P. aeruginosa strain PAO1 (Pseudomonas aeruginosa, UniProt Q9HT15); assay: ATP hydrolysis by P. aeruginosa PAO1 membranes, enzyme-coupled spectrophotometric assay; type: biochemical; conditions: 38.5 mM selenite
T2 construct: endogenous in cells; host or cells: P. aeruginosa strain PAO1, inverted membrane vesicles
Procedure: P. aeruginosa strain PAO1 was grown in LB medium at 37 °C as described. For preparation of IMV, final cultures used 1 L of LB per 2L baffled flask and were inoculated from an overnight culture at an initial OD600 ~ 0.025. Cultures were shaken at 250 rpm and monitored until they reached mid- to late-logarithmic growth phase (OD600, 1–1.4). Cultures were chilled and subsequent steps for cell lysis and isolation of IMV were done at 4 °C. Cells were sedimented by centrifugation (3,700 × g, 30 min). Cells from 1 to 2 L of culture (~ 2–3 g wet cells/L) were resuspended in 25–40 ml of STEM buffer (TEM buffer plus sucrose[55]), transferred to a 50 ml Oak Ridge tube, sedimented again (11,617 × g, 10 min), resuspended in 20–40 ml of STEM and frozen at -80 °C. Thawed cells were lysed by two sequential passages through an SLM-Aminco French pressure cell at ~ 16,000 psi, essentially as described for E. coli[55]; the pressure cell was enclosed in a clear biohazard bag (MiniGrip, IP2024B3T) during use to contain any aerosols formed. Unlysed cells and cell wall debris were removed by centrifugation (50 ml Oak Ridge tubes, 16,743 × g, 25 min): the supernate was diluted with MTGM7.5 buffer (50 mM MOPS-TRIS, 10%(v/v) glycerol, 5 mM Mg(CH3COO)2, pH 7.5) and centrifugation was repeated at least twice, recovering the supernate each time. The final supernatant lysate was stored at -80 °C. To isolate IMV, the cleared lysate was thawed quickly and diluted with MTGM7.5 as needed to fill 1 or 2 polycarbonate tubes for use in a Beckman Ti70 rotor. The IMV (membranes) were sedimented by ultracentrifugation (250,000 × g max) for 1 h, the membranes were resuspended in MTGM7.5 buffer to fill one Ti70 tube and ultracentrifugation was repeated for 45 min. The membranes were resuspended in a small volume of MTGM7.5 buffer (typically ≥ 10 mg membrane protein/ml) and homogenized manually (Potter–Elvehjem type). Small aliquots of the final membrane sample were quick-frozen in liquid nitrogen and stored at − 80 °C.
as §1

[3] = ε88stop + 38.5 mM selenite (Fig. 3B)

`CCC(=O)C(C)C(O)C(C)CC(C)C1OC(=O)CC2(O)CC=C(C)C(O2)C(C)=CCCCC(OC2CC(OC(N)=O)C(O)C(C)O2)C=CC(C)CC1C` (stereo not drawn) [ventA, venturicidin A] was tested, and the Ki ([1]; ε88stop (Fig. 3A)) was 500 nM, the Ki [1, 3] was 90 nM and the “Ki for early inhibition lower in presence of selenite than in its absence” value ([1]; ε88-stop membranes) was “fivefold”. The “ATPase at saturating ventA (y0)” value ([1]; ε88stop (Fig. 3A)) was 37% (± 3), the “VentA-sensitive ATPase (y1)” value ([1]; ε88stop (Fig. 3A)) was 67% (± 4) and the “ATPase at saturating ventA (y0)” value [1, 3] was 37% (± 2). For the same molecule, the “VentA-sensitive ATPase (y1)” value [1, 3] was 66% (± 4), the “Inhibition of early ATPase rate” value [2] was “up to 42%” and the “ATPase remaining at saturating ventA” value ([2]; best fit of early rates) was 62% (± 2). The “ventA-sensitive ATPase” value ([2]; best fit of early rates) was 42% (± 3), the “Late rate, recovery of activity as % of uninhibited rate” value ([2]; concentration-dependent) was “up to 140%” and the Ki ([2]; read-out: Ki (inhibition of early rate)) was 1200 nM.
